In patent publication US9783796B2, “Amidase, gene for the same, vector, transformant, and method for production of optically active carboxylic acid amide and optically active carboxylic acid by using any one of those items” (KANEKA CORPORATION, priority 2007, dated 2017):
“Also recorded” adds a separate entry of the source. Like-named read-outs stand apart in the source and are kept apart here.

B1: HCS: amidase purified from Cupriavidus sp. KNK-J915 strain (FERM BP-10739), amino acid sequence SEQ ID NO:1 (protein, listed as Cupriavidus sp.)
chain: MPTDIQTLQTRLHDGAVSRADVIAQAAQHAQQPDAHAVFLHTTFDTAAQVAKAADAACLAGKPLHPLAGLPVSVKDLFNIAGEASRAGSPVRSDALAATADATVVRRLRESGAALVGRTNMTEFAFSGVGINPHFGTPVNPADKQVARIPGGSSSGAAVSVALGLAVAGLGSDTGGSIRIPAALCGLTGFKPTARRVPLDGAFPLSYTLDTACAMARTVQDCVLVDSVIADQAVLPVIKGAAGIRLAIPRQVLLDDLDDTVARAFDRALGRLSAAGVQIEHIDLPELAELATINASGGFTAAEAHAIHRHVLATRREQYDPRVASRIDRGAAMSAADYVDLMRARLDWITRVAARLEGFDAVACPTVPMVAPPIAPLVADDALFFHTNALLLRNTSAFNFLDGCSISLPCHQPDELPVGLMLSHGALRDAQLLGTAIALESIVKPAA

Columns and labels:
[1] = test system: E. coli HB101 (pNCS); experiment: Selective hydrolysis of S-enantiomer in racemic nipecotamide with culture solution of E. coli HB101 (pNCS); type: biochemical, Escherichia coli; details: pH 8.0, 25 hours, 45° C.; for optical purity: from racemic nipecotamide
Method: An amount of 10.1 g of racemic nipecotamide was dissolved in water to prepare a substrate solution having a pH adjusted to 8.0. To 200 ml of the prepared substrate solution was added 2 ml of a culture solution obtained by culturing E. coli HB101 (pNCS) as in Example 6, and stirred for 25 hours at 45° C. After completion of the reaction, the reaction liquid was heated for 30 minutes at 70° C., and centrifuged to remove solid matters including cells. Subsequently, the substrate and the product in the reaction liquid were converted into derivatives with benzyl chloroformate. The obtained derivatives were analyzed by high speed liquid chromatography to determine the conversion ratio (%) and optical purity (% e.e.). […] Conversion ratio (%)=P/(S1+P)×100
(§1) (P: amount of product (mol), S1: amount of residual substrate (mol)) Optical purity (% e.e.)=(A−B)/(A+B)×100
(§2) (A represents the amount of the target enantiomer, and B represents the amount of the corresponding enantiomer.)
High Speed Liquid Chromatography Analysis Condition
[Analysis of Conversion Ratio]
(§3) Column: YMC-A303 (4.6 mmφ×250 mm, product of YMC Co., Ltd.)
Eluant: 20 mM phosphate aqueous solution (pH 2.5)/acetonitrile=7/3
Column temperature: 35° C.
(§4) Measurement wavelength: 210 nm
[Optical Purity Analysis]
Column: CHIRALPAK AD-RH (4.6 mmφ×150 mm, product of DAICEL CHEMICAL INDUSTRIES, LTD.)
Column temperature: room temperature

[2] = test system: HCS; experiment: Substrate specificity of HCS; type: biochemical, Cupriavidus sp. KNK-J915; details: for Relative activity (%): activity on (R,S)-nipecotamide set to 100, 1% substrate, 30° C., 100 mM phosphate buffer pH 7.0
Method: Next, the substrate specificity of HCS was analyzed. The substrate compound was added in a form of a 1% solution. The enzyme reaction was allowed to proceed at 30° C. in 100 mM phosphate buffer (pH 7.0). The resultant solution was analyzed under the high speed liquid chromatography analysis conditions A described in Example 1 or the high speed liquid chromatography analysis conditions B shown below.
High Speed Liquid Chromatography Analysis Condition B
Column: SUMICHIRAL OA-5000 (4.6 mmφ×150 mm, product of Sumika Chemical Analysis Service, Ltd.)
Eluant: 2 mM CuSO4 aqueous solution
(§5) Column temperature: 30° C.
Measurement wavelength: 254 nm

[3] = test system: purified enzyme (HCS); experiment: Selective hydrolysis of racemic carboxylic acid amides with the purified enzyme solution (Examples 8 to 10); type: biochemical, Cupriavidus sp. KNK-J915; details: 100 mM phosphate buffer pH 7.0, 30° C.; for optical purity: product acid, 1% racemic substrate; for conversion ratio: 1% substrate
Method: To 100 mM phosphate buffer (pH 7.0) were added 1% racemic pipecolic acid amide and the purified enzyme solution obtained in Example 1, and allowed to react at 30° C. Then high speed liquid chromatography analysis was conducted to determine the conversion ratio (%) and optical purity (% e.e.). […] Conversion ratio (%)=P/(S1+P)×100
as §1, §2
To 100 mM phosphate buffer solution (pH 7.0) were added 1% racemic indoline carboxylic acid amide and the purified enzyme solution obtained in Example 1. The obtained mixture was allowed to react at 30° C., and then the substrate and product in the reaction liquid were converted into derivatives with acetic anhydride. The conversion ratio (%) and optical purity (% e.e.) were determined by high speed liquid chromatography analysis of the obtained derivatives.
To 100 mM phosphate buffer (pH 7.0) were added 1% racemic phenyl propionic acid amide and the purified enzyme solution obtained in Example 1, and allowed to react at 30° C. The conversion ratio (%) and optical purity (% e.e.) were determined by high speed liquid chromatography analysis.

[4] = test system: putative amidase derived from Ralstonia eutropha JMP134 strain; experiment: Selective hydrolysis of S-enantiomer in racemic N-benzylnipecotamide with culture solution of E. coli HB101 (pNRE); type: biochemical
Description: Primer 7 (SEQ ID NO:10 in the sequence listing) having the NdeI site added to the initiation codon site, and primer 8 (SEQ ID NO:11 in the sequence listing) having an SacI site immediately downstream of the termination codon were synthesized based on the base sequence (SEQ ID NO:9 in the sequence listing) encoding the putative amidase derived from Ralstonia eutropha JMP134 strain, which has high sequence identity to the base sequence of the present invention derived from Cupriavidus sp. KNK-J915 (FERM BP-10739) determined in Example 3. An amount of 50 μl of a buffer for ExTaq was prepared. This buffer contained the two primers (primer 7 and primer 8, each 50 pmol), chromosomal DNA derived from Ralstonia eutropha JMP134 strain (10 ng), dNTP (each 10 nmol) and ExTaq (2.5 U, product of TAKARA SHUZO Co., Ltd.). Heat denaturation (97° C., 1 minute), annealing (60° C., 1 minute), and an extension reaction (72° C., 1.5 minutes) were repeated for 30 cycles. The reaction fluid was cooled to 4° C. and subjected to agarose gel electrophoresis to confirm amplification of the DNA. […]
To 100 mM phosphate buffer (pH 7.0) were added 1% racemic N-benzylnipecotamide and the culture solution of E. coli HB101 (pNRE) obtained in Example 11, and allowed to react at 30° C. Thereafter, the conversion ratio (%) and optical purity (% e.e.) were determined by high speed liquid chromatography analysis. […]

[5] = Optimum pH, optimum temperature and thermal stability of the amidase reaction of purified HCS; type: biochemical; details: stable at or below this temperature
Method: The Optimum pH and optimum temperature of an amidase reaction of the purified enzyme obtained in Example 1, and thermal stability of the enzyme were determined by quantifying N-benzylnipecotic acid produced in the hydrolysis reaction using N-benzylnipecotamide as a substrate, by HPLC. For determination of the optimum pH, the reaction was allowed to proceed at each pH for 1 hour at 30° C., and stopped by addition of acetonitrile. The resultant solution was analyzed under the high speed liquid chromatography analysis conditions A described in Example 1. For determination of the optimum temperature, the reaction was allowed to proceed at each temperature for 1 hour, and stopped by addition of acetonitrile. The resultant solution was analyzed under the high speed liquid chromatography analysis conditions A described in Example 1. For determining the thermal stability, after incubation at each temperature for 30 minutes, the reaction was allowed to proceed for 1 hour, and stopped by addition of acetonitrile. The resultant solution was analyzed under the high speed liquid chromatography analysis conditions A described in Example 1.

[6] = Amidase activity of purified enzyme (production of N-benzylnipecotic acid, HPLC); type: biochemical; details: 1% N-benzylnipecotamide, 100 mM phosphate buffer pH 7.0, 1 hour, 30° C.
Method: In the following examples, the amidase activity was determined by the following procedure. To 100 mM phosphate buffer (pH 7.0) were added 1% N-benzylnipecotamide and an enzyme solution, and allowed to react for 1 hour at 30° C. Then, the solution was analyzed under high speed liquid chromatography analysis conditions A. Enzyme activity which produces 1 μmol of N-benzylnipecotic acid per 1 minute under these conditions was defined as 1 unit.
High Speed Liquid Chromatography Analysis Condition A
as §3
Eluant: 20 mM phosphate aqueous solution (pH 2.5)/acetonitrile=9/1
as §5, §4

| Molecule | Relative activity (%) [2] | amidase activity of HCS on the substrate (in words) [2] | further results |
| --- | --- | --- | --- |
| O=C(O)[C@H]1CCCNC1 [(S)-nipecotic acid] | – | – | optical purity [1]: 97.1 % e.e. |
| NC(=O)C1CCCN1 (racemic) [D,L-proline amide] | 0% | – | – |
| NC(=O)C(N)Cc1ccccc1 (racemic) [D,L-phenylalanine amide] | 3.4% | weak amidase activity | – |
| O=C(O)[C@H]1CCCCN1 [(R)-pipecolic acid] | – | – | optical purity [3]: 80.1 % e.e. |
| C[C@H](C(=O)O)c1ccccc1 [(S)-phenyl propionic acid] | – | – | optical purity [3]: 89.1 % e.e. |
| O=C(O)[C@H]1Cc2ccccc2N1 [(R)-indoline carboxylic acid] | – | – | optical purity [3]: 97.8 % e.e. |
| CCC(N)=O [propionic acid amide] | 59% | particularly strong amidase activity; also recorded: especially strong activity | – |
| CC(C(N)=O)c1ccccc1 (racemic) [(R,S)-phenyl propionic acid amide] | 309% | – | amidase activity of HCS on the substrate (in words) ([2]; listed as phenyl propionic acid amide): particularly strong amidase activity; amidase activity of HCS on the substrate (in words) ([2]; listed as phenylpropionic acid amide): especially strong activity; conversion ratio [3]: 36.0% |
| CC(C)CC(N)C(N)=O (racemic) [D,L-leucine amide] | 0% | – | – |
| CC(C)C(N)=O [isobutylamide] | 230% | particularly strong amidase activity; also recorded: especially strong activity | – |
| NC(=O)C(O)c1ccccc1 (racemic) [(R,S)-mandelic acid amide] | 49% | particularly strong amidase activity; also recorded: especially strong activity | – |
| CC(N)C(N)=O (racemic) [D,L-alanine amide] | 0% | – | – |
| O=C(NCc1ccccc1)C1CCCNC1 (racemic) [(R,S)-N-benzylnipecotamide] | 49% | particularly strong amidase activity; also recorded: especially strong activity | conversion ratio ([4]; 1% substrate, 100 mM phosphate buffer pH 7.0, 30° C.): 50.1% |
| NC(=O)C1CCCCN1 (racemic) [(R,S)-pipecolic acid amide] | 34% | particularly strong amidase activity; also recorded: especially strong activity | conversion ratio [3]: 18.3% |
| NC(=O)c1ccccc1 [benzamide] | 5.4% | weak amidase activity | – |
| NC(=O)C1Cc2ccccc2N1 (centres unmarked) | 64% | particularly strong amidase activity; also recorded: especially strong activity | conversion ratio [3]: 39.2% |
| NC(=O)C1CCCNC1 (racemic) [(R,S)-nipecotamide] | 100% | particularly strong amidase activity; also recorded: especially strong activity | conversion ratio [1]: 50.2% |
| NC(=O)CC(N)c1ccccc1 (racemic) [D,L-β-phenylalanine amide] | 0% | – | – |
| NC(=O)[C@@H]1CCCNC1 [(R)-nipecotamide] | – | – | optical purity [1]: 98.3 % e.e. |
| O=C(NCc1ccccc1)[C@@H]1CCCNC1 [(R)—N-benzylnipecotamide] | – | – | optical purity ([4]; residual amide, pH 7.0, 30° C.): 99.4 % e.e. |
| B1 | – | – | Thermal stability: temperature at which stable [5]: ≤ 50 °C; specific activity of the purified enzyme [6]: 1.7 U/mg-protein |
